The values below come from patent US11078192B2, “Aromatic acetylene or aromatic ethylene compound, intermediate, preparation method, pharmaceutical composition and use thereof” (GUANGZHOU MAXINOVEL PHARMACEUTICALS CO., LTD., priority 2016, dated 2021).

The structures appear in SMILES notation.

Chain of PD-1/PD-L1 (Q9NZQ7 19-238): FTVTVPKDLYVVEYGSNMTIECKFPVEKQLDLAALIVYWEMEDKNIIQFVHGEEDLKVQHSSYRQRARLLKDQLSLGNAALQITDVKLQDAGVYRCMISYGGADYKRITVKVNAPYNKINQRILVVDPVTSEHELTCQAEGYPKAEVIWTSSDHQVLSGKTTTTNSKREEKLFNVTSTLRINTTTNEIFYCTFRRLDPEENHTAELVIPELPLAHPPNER

For the experiment, the target named is PD-1/PD-L1 (Homo sapiens (Human), UniProt Q9NZQ7). Description: Homogeneous Time-Resolved Fluorescence (HTRF) binding assay. The following applies: CisBio kit #64CUS000C-1, read-out: IC50 of compounds binding to PD-1/PD-L1. As to the method:
Homogeneous Time-Resolved Fluorescence (HTRF) binding assay was used to determine the binding activity of the compound of the present invention to PD-1/PD-L1.
The purchased kit (CisBio, #64CUS000C-1) contained reagents required for assays such as PD-1, PD-L1, anti-tag1-Eu, Anti-tag2-XL665, Dilute Buffer, and Detection Buffer.
1. The compound was formulated to 10 concentrations with a 3-fold gradient with 100% DMSO.
2. The solution of the compound in DMSO was added to Dilute Buffer, mixed thoroughly, then transferred to a 96-well plate.
3. PD-L1 was diluted with Dilute Buffer, then added to the above 96-well plate.
4. PD-1 was diluted with Dilute Buffer and added to the above 96-well plate, which was then incubated at room temperature for 30 minutes.
5. A portion of anti-tag1-Eu and a portion of anti-tag2-XL665 were added to Detection Buffer, mixed thoroughly and transferred to the above 96-well plate.
6. The mixture in the above 96-well plate was incubated at room temperature for 1 to 24 hours.
7. HTRF values were read with Envision.
Background: Time-resolved FRET reads energy transfer from a long-lived donor to a nearby acceptor.
In the case of `COc1nc(/C=C/c2cccc(-c3ccccc3)c2C)ccc1CNC1CCCCC1NC(C)=O` (stereo not shown) [Compound 42], the IC50 worked out at 1100 nM.
As for `COc1cc(/C=C/c2cccc(-c3ccccc3)c2C)cc(OC)c1CNC(CCO)C(=O)O` (stereo not shown) [Compound 43, (E)-2-(2,6-Dimethoxy-4-(2-(2-methylbiphenyl-3-yl)vinyl)benzylamino)-4-hydroxybutanoic Acid], the IC50 worked out at 130 nM.
Regarding `COc1cc(/C=C/c2cccc(-c3ccccc3)c2C)cc(OC)c1CNC(C)(CO)C(=O)O` (stereo not shown) [Compound 44, (E)-2-(2,6-Dimethoxy-4-(2-(2-methylbiphenyl-3-yl)vinyl)benzylamino)-3-hydroxy-2-methylpropanoic Acid], the IC50 is 59 nM.
For the compound `COc1cc(/C=C/c2cccc(-c3ccccc3)c2C)cc(OC)c1CN[C@@](C)(CO)C(=O)O` [Compound 45, (S,E)-2-(2,6-Dimethoxy-4-(2-(2-methylbiphenyl-3-yl)vinyl)benzylamino)-3-hydroxy-2-methylpropanoic Acid], the IC50 stood at 49 nM.
For `COc1cc(/C=C/c2cccc(-c3ccccc3)c2C)cc(OC)c1CN[C@](C)(CO)C(=O)O` [Compound 46, (R,E)-2-(2,6-Dimethoxy-4-(2-(2-methylbiphenyl-3-yl)vinyl)benzylamino)-3-hydroxy-2-methylpropanoic Acid] the value was 48 nM; for `COc1cc(/C=C/c2cccc(-c3ccccc3)c2C)cc(OC)c1CN1CCCCC1(CO)C(=O)O` (stereo not shown) [Compound 47], 920 nM.
For the compound `COc1ccc(-c2cccc(/C=C/c3cc(OC)c(CN[C@@H](CO)C(=O)O)c(OC)c3)c2C)cc1` [Compound 48, (S,E)-2-(2,6-Dimethoxy-4-(2-(4′-methoxy-2-methylbiphenyl-3-yl)vinyl)benzylamino)-3-hydroxypropionic Acid], the IC50 is over 10000 nM.
Then `COC(=O)c1ccc(-c2cccc(/C=C/c3cc(OC)c(CNC(C)(CO)C(=O)O)c(OC)c3)c2C)cc1` (stereo not shown) [Compound 49, (E)-2-(2,6-Dimethoxy-4-(2-(4′-(methoxycarbonyl)-2-methylbiphenyl-3-yl)vinyl)benzylamino)-3-hydroxy-2-methylpropanoic Acid], with over 10000 nM.
In the case of `COc1ccc(-c2cccc(/C=C/c3cc(OC)c(CNC(C)(CO)C(=O)O)c(OC)c3)c2C)cc1` (stereo not shown) [Compound 50, (E)-2-(2,6-Dimethoxy-4-(2-(4′-methoxy-2-methylbiphenyl-3-yl)vinyl)benzylamino)-3-hydroxy-2-methylpropionic Acid], the IC50 came out at 7980 nM.
Then `COC(=O)c1cccc(-c2cccc(/C=C/c3cc(OC)c(CNC(C)(CO)C(=O)O)c(OC)c3)c2C)c1` (stereo not shown) [Compound 51, (E)-2-(2,6-Dimethoxy-4-(2-(3′-methoxycarbonyl-2-methylbiphenyl-3-yl)vinyl)benzylamino)-3-hydroxy-2-methylpropionic Acid], with 815 nM; and `COc1cc(/C=C/c2cccc(-c3cccc(CO)c3)c2C)cc(OC)c1CNC(C)(CO)C(=O)O` (stereo not shown) [Compound 52, (E)-2-(2,6-Dimethoxy-4-(2-(3′-hydroxymethyl-2-methylbiphenyl-3-yl)vinyl)benzylamino)-3-hydroxy-2-methylpropionic Acid], with over 10000 nM.
In the case of `COc1cc(/C=C/c2cccc(-c3ccccc3)c2C)cc(OC)c1CNc1cccc(O)c1C(=O)O` [Compound 53, (E)-2-(2,6-Dimethoxy-4-(2-(2-methylbiphenyl-3-yl)vinyl)benzylamino)-6-hydroxybenzoic Acid], the IC50 is over 10000 nM.
Then `COc1ccc(-c2cccc(/C=C/c3cc(OC)c(CNc4cccc(O)c4C(=O)O)c(OC)c3)c2C)cc1` [Compound 54, (E)-2-(2,6-Dimethoxy-4-(2-(4′-methoxy-2-methylbiphenyl-3-yl)vinyl)benzylamino)-6-hydroxybenzoic Acid], with over 10000 nM; and `COc1cc(/C=C/c2cccc(-c3ccc(C(N)=O)cc3)c2C)cc(OC)c1CNc1cccc(O)c1C(=O)O` [Compound 55, (E)-2-(2,6-Dimethoxy-4-(2-(4′-carbamoyl-2-methylbiphenyl-3-yl)vinyl)benzylamino)-6-hydroxy-benzoic Acid], with 4500 nM.
Then `COc1cc(/C=C/c2cccc(-c3ccc4c(c3)OCCO4)c2C)cc(OC)c1CNC(CO)C(=O)O` (stereo not shown) [Compound 56, (E)-2-(4-(3-(2,3-Dihydrobenzo[b][1,4]dioxin-6-yl)-2-methylstyryl)-2,6-dimethoxybenzylamino)-3-hydroxypropanoic Acid], with 100 nM.
For `COc1cc(/C=C/c2cccc(-c3ccc4c(c3)OCCO4)c2C)cc(OC)c1CNC(C)(CO)C(=O)O` (stereo not shown) [Compound 57, (E)-2-(4-(3-(2,3-Dihydrobenzo[b][1,4]dioxin-6-yl)-2-methylstyryl)-2,6-dimethoxybenzylamino)-3-hydroxy-2-methylpropanoic Acid] the value was 70 nM; for `COc1cc(/C=C/c2cccc(-c3ccccc3)c2C)cc(OC)c1CNc1ccc(C(=O)O)c(O)c1` [Compound 58, (E)-4-(2,6-Dimethoxy-4-(2-(2-methylbiphenyl-3-yl)vinyl)benzylamino)-2-hydroxybenzoic Acid], over 10000 nM; for `COc1cc(/C=C/c2cccc(-c3ccccc3)c2C)cc(OC)c1CNc1ccc(O)c(C(=O)O)c1` [Compound 59, (E)-5-(2,6-Dimethoxy-4-(2-(2-methylbiphenyl-3-yl)vinyl)benzylamino)-2-hydroxybenzoic Acid], over 10000 nM.
In the case of `COc1cc(N2C=CCN2c2cccc(-c3ccccc3)c2C)cc(OC)c1CNC(CO)C(=O)O` (stereo not shown) [Compound 60, 2-(2,6-Dimethoxy-4-(2-(2-methylbiphenyl-3-yl)-1H-pyrazol-1-yl)benzylamino)-3-hydroxypropanoic Acid], the IC50 was over 10000 nM.
For `COc1cc(/C=C/c2cccc(-c3cnn(C)c3)c2C)cc(OC)c1CN[C@@H](CO)C(=O)O` [Compound 61] the value was over 10000 nM; for `COc1cc(/C=C/c2cccc(-c3ccc4c(c3)OCCO4)c2C)ccc1CN[C@@H](CO)C(=O)O` [Compound 62, (S,E)-2-(4-(3-(2,3-Dihydrobenzo[b][1,4]dioxin-6-yl)-2-methylstyryl)-2-methoxybenzylamino)-3-hydroxypropanoic Acid], 120 nM; for `COc1cc(/C=C/c2cncc(-c3ccccc3)c2C)cc(OC)c1CN[C@@H](CO)C(=O)O` [Compound 63, (S,E)-2-(2,6-dimethoxy-4-(2-(4-methyl-5-phenylpyridin-3-yl)vinyl)benzylamino)-3-hydroxypropanoic Acid], 3900 nM.
As for `COc1cc(/C=C/c2cncc(-c3ccc4c(c3)OCCO4)c2C)cc(OC)c1CN[C@@H](CO)C(=O)O` [Compound 64, (S,E)-2-(4-(2-(5-(2,3-Dihydrobenzo[b][1,4]dioxin-6-yl)-4-methylpyridin-3-yl)vinyl)-2,6-dimethoxybenzylamino)-3-hydroxypropanoic Acid], the IC50 came to 4200 nM.
On to `COc1cc(/C=C/c2cncc(-c3ccccc3)c2C)cc(OC)c1CNC(C)(CO)C(=O)O` (stereo not shown) [Compound 65, (E)-2-(2,6-Dimethoxy-4-(2-(4-methyl-5-phenylpyridin-3-yl)vinyl)benzylamino)-3-hydroxy-2-methylpropionic Acid], for which the IC50 came out at 2000 nM.
On to `COc1cc(/C=C/c2cncc(-c3ccc4c(c3)OCCO4)c2C)cc(OC)c1CNC(C)(CO)C(=O)O` (stereo not shown) [Compound 66, (E)-2-(4-(2-(5-(2,3-Dihydrobenzo[b][1,4]dioxin-6-yl)-4-methylpyridin-3-yl)vinyl)-2,6-dimethoxybenzylamino)-3-hydroxy-2-methylpropanoic Acid], for which the IC50 was 2900 nM.
